Values of other authors in US20260284079A1, “LIPID PRODRUGS OF ALLOPR[…] USES THEREOF” (Seaport Therapeutics, Inc., priority 2023, published 2026).

Experiments:
[1] = test system: salivary cortisol levels; conditions: literature; cited from earlier work
[2] = due to extensive first-pass metabolism; cited from earlier work

## CCNC1=Nc2ccc(Cl)cc2C(C)(c2ccccc2)O1 (centres unmarked) [Etifoxine]
[1]
  blunting of increase in salivary cortisol levels following a TSST: does not blunt an increase in salivary cortisol levels

## CC(=O)[C@H]1CC[C@H]2[C@@H]3CC[C@H]4C[C@H](O)CC[C@]4(C)[C@H]3CC[C@]12C [allopregnanolone]
[2]
  oral bioavailability: less than 5%
